Assay results: PubChem BioAssay (NCI)
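1) Cells in 96-well plates. 2) Compound, 48 h, 5 concentrations. 3) Linear interpolation between surrounding doses. 4) Unreached endpoint = highest concentration. GI50: concentration for 50% inhibition of growth. TGI is the concentration that stops growth completely.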

Experiments:
Assay in all cases: NCI tumour cell line growth inhibition, 48 h
[1] = system: SNB-78 CNS
[2] = system: DLD-1 colon
[3] = system: DMS 273 small cell lung
[4] = system: M19-MEL melanoma
[5] = system: LXFL 529 NSCLC
[6] = system: XF 498 CNS
[7] = system: RXF-631 renal
[8] = system: HOP-18 NSCLC
[9] = system: MDA-N

| SMILES | TGI [1] | TGI [2] | TGI [3] | TGI [4] | TGI [5] | TGI [6] | TGI [9] | further results |
| --- | --- | --- | --- | --- | --- | --- | --- | --- |
| Cc1ccc(NC(=O)C2C(=O)N(c3ccc(C)c(C)c3)C(=O)/C2=N\NC(N)=S)cc1C (stereo unspecified) | > 100 µM | > 100 µM | > 100 µM | > 100 µM | > 100 µM | > 100 µM |  | TGI [7]: > 100 µM |
| Cn1c2ccccc2c(=O)c2c([N+](=O)[O-])ccc(NCCN)c21 | 31.3 µM |  | 16.9 µM | 26 µM | 21.1 µM | 28.7 µM |  | TGI [8]: 26.4 µM |
| COc1ccc(C(=O)C(C(=O)C(=O)Nc2nccs2)c2ccc(OC)cc2)cc1 (stereo unspecified) | > 100 µM | > 100 µM | > 100 µM |  | > 100 µM | > 100 µM |  | TGI [8]: > 100 µM |
| COC1C(O)C(C)OC(OC2CC3CCC4C(CCC5(C)C(C6=CC(=O)OC6)CCC45O)C3(O)C(OC(C)=O)C2)C1O (stereo unspecified) |  |  |  |  |  |  | 5.05 µM |  |
| O=S(=O)(O)/C(=C\c1ccccc1)c1ccccc1 (tested in a mixture with another compound) |  |  |  |  |  |  | > 100 µM |  |
| CCOc1ccc2ccc3cccnc3c2n1 |  |  |  |  |  |  | > 100 µM |  |
| NC(Cc1ccnnc1)C(=O)O (stereo unspecified) |  |  |  |  |  |  | > 100 µM |  |
| CC(O)C(O)C(O)C(/C=N\Nc1ccccc1)=N/Nc1ccccc1 (stereo unspecified) |  |  |  |  |  |  | 25.1 µM |  |
| COc1ccc(/C=C(/C)[N+](=O)[O-])cc1 |  |  |  |  |  |  | 5.25 µM |  |
| CCCCCC(O)(CCCCC)CCCCCCCCC1=C(O)c2[nH]c(=O)ccc2C(=O)C1=O | 57.8 µM | 19.7 µM | 12.6 µM | 13.8 µM | 15.7 µM | 16 µM |  | TGI [7]: 23.8 µM |
| CCc1c(O)c2c(c(O)c1C(C)=O)C(=O)c1c(cc(O)c(C(=O)O)c1C(=O)O)C2=O |  |  |  |  |  |  | > 100 µM |  |
| CC(C)(C)[Si](C)(C)OCC1C=CC(n2cnc3c(N)ncnc32)O1 (stereo unspecified) |  |  |  |  |  |  | 85.9 µM |  |
| CC1(C)CC(=O)C(=[N+]=[N-])C(=O)C1 |  | > 100 µM |  |  | > 100 µM | > 100 µM |  |  |
| CC(=O)OC1CCC2(C)C(=CCC3C4CCC5(OC6CC(C)CN(C(C)=O)C6C5C)C(C)=C4C(=O)C32)C1 (stereo unspecified) |  |  |  |  |  |  | 48.6 µM |  |
| COc1cc2c([C@@H](OC(=O)c3ccccc3)c3ccc4c(c3)OCO4)nccc2c(OC)c1OC | > 100 µM | > 100 µM | > 100 µM | > 100 µM | > 100 µM | 90.9 µM |  | TGI [8]: > 100 µM; TGI [7]: > 100 µM |
| O=C(O)/C(=C\c1ccccc1Cl)S(=O)(=O)c1ccccc1 | > 100 µM | > 100 µM | > 100 µM | > 100 µM | > 100 µM |  |  | TGI [8]: > 100 µM; TGI [7]: > 100 µM |
| Cc1cc(C)c2c(SCc3ccc(Cl)cc3Cl)nc(N)nc2n1 |  |  |  |  |  |  | > 100 µM |  |
| c1cc[c]([Sn]([S]c2cccc3cccnc23)([S]c2cccc3cccnc23)[c]2ccccc2)cc1 | 0.68 µM |  | 0.955 µM | 0.542 µM | 0.211 µM | 0.407 µM |  | GI50 [1]: 0.224 µM; GI50 [3]: 0.293 µM; GI50 [4]: 0.216 µM; GI50 [5]: 0.0782 µM; GI50 [8]: 0.193 µM; TGI [8]: 0.481 µM; GI50 [6]: 0.155 µM; GI50 [7]: 0.159 µM; TGI [7]: 0.324 µM |
| COc1cc(NCC2COc3c(ccc(OC)c3OC)C2=O)c([N+](=O)[O-])cc1OC (stereo unspecified) |  |  |  |  |  |  | > 100 µM |  |
| COC(=O)/C(=C/c1ccc(OC)cc1)NC(=O)c1ccccc1 |  | > 100 µM |  |  | > 100 µM |  |  |  |
